This note sets out measurements from US20250332173A1, “COMPOUNDS AND METHODS FOR MODULATING NUCLEIC ACID SPLICING” (REMIX THERAPEUTICS INC., priority 2021, published 2025).

Holding throughout (type): cell-based, human
One assay deals with SMN2 mRNA. The assay is described as follows: RT-qPCR splicing assay, SMN2 canonical junction (CJ) mRNA. The note with it: Homo sapiens; canonical junction qPCR panel, Table 5; read-out: SMN2 (decrease in CJ mRNA levels, IC50). The gist of the method: (§1)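 K562/A673 cells, 11-pt 3-fold compound titration from 10 uM final, DMSO ≤0.25%, 24 h 37 °C 5% CO2; lyse (DNase I or Igepal/Tris buffer pH 7.4); RT-qPCR for CJ isoform vs housekeeping gene (GAPDH/GUSB/PPIA).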
A general note: In qPCR the cycle at which signal appears reflects the starting amount.

Another assay concerns Target C. The assay can be described thus: RT-qPCR splicing assay panel, Target C canonical junction (CJ) mRNA. The following applies: Homo sapiens; canonical junction qPCR panel, Table 5; read-out: Target C (decrease in CJ mRNA levels, IC50). The method, boiled down: as §1
A further assay concerns HTT. The assay is described as follows: HiBiT protein abundance assay, HTT HiBiT K562 cell line. The following applies: 24 hours, top dose 10 μM. The gist of the method:
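Endogenous targets in K562 knock-in lines carried a HiBiT tag and were treated for 24 h at 37 °C with 10-point 3-fold dilutions (top 10 μM final, DMSO ≤0.25%). Abundance was read as lytic Nano-Glo HiBiT luminescence. IC50 came from a four-parameter logistic fit of normalized response.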
For orientation: HiBiT is a short tag that completes a luciferase, so light tracks the accessible tagged protein.

The mark [1] stands for this setting: HiBiT lytic detection, modified K562 cells, read-out: Effect on protein abundance, HTT (IC50).

SMILES strings stand for the structures. Like-named read-outs stand apart in the source and are kept apart here.

As for `CCN1CC[C@H](n2ncc3nc(-c4cc(C)c5nc(C)cn5n4)ccc3c2=O)CC12CC2` [Compound 1531], the IC50 (commonly the concentration at which inhibition is half-maximal) with SMN2 mRNA was below 0.1 µM; in the assay on Target C, 0.1 to 1 µM; in the assay with HTT (setting [1]), 0.1 to 1 µM.

`Cc1cn2nc(-c3ccc4c(=O)n([C@H]5CCN(C)C6(CC6)C5)ncc4n3)cc(C)c2n1` [Compound 1533]: the IC50 with SMN2 mRNA was below 0.1 µM; in the assay with Target C, 0.1 to 1 µM; with HTT (setting [1]), 0.1 to 1 µM.

For the molecule `Cc1cn2nc(-c3ccc4c(=O)n([C@@H]5CCN(C)C6(CC6)C5)ncc4n3)cc(C)c2n1` [Compound 1534], the IC50 with SMN2 mRNA, in the assay on Target C and in the assay on HTT (setting [1]) was below 0.1 µM each time.

Consider `Cc1cn2nc(-c3ccc4c(=O)n(C5CCN(CCO)C6(CC6)C5)ncc4n3)cc(C)c2n1` (stereo not drawn) [Compound 1541, 2-(2,8-dimethylimidazo[1,2-b]pyridazin-6-yl)-6-[4-(2-hydroxyethyl)-4-azaspiro[2.5]octan-7-yl]pyrido-[2,3-d]pyridazin-5-one], for which the half-maximal inhibitory concentration (IC50) is below 0.1 µM in the assay on SMN2 mRNA; 0.1 to 1 µM in the assay with Target C; below 0.1 µM with HTT (HiBiT K562 cell line, read-out: Effect on protein abundance, HTT (IC50 category)).

Turning to `Cc1cn2nc(-c3ccc4c(=O)n(C5CCN(CCF)C6(CC6)C5)ncc4n3)cc(C)c2n1` (stereo not drawn) [Compound 1542, 2-(2,8-dimethylimidazo[1,2-b]pyridazin-6-yl)-6-[4-(2-fluoroethyl)-4-azaspiro[2.5]octan-7-1]pyrido[2,3-d]pyridazin-5-one], the figures for the IC50 in the assay with SMN2 mRNA, in the assay on Target C and with HTT (setting [1]) were 0.1 to 1 µM, 1 to 10 µM and 0.1 to 1 µM, respectively.

For the molecule `Cc1cn2nc(-c3ccc4c(=O)n(C5CCN(CC6CC6)C6(CC6)C5)ncc4n3)cc(C)c2n1` (stereo not drawn) [Compound 1543, 6-[4-(cyclopropylmethyl)-4-azaspiro[2.5]octan-7-yl]-2-(2,8-dimethylimidazo[1,2-b]pyridazin-6-yl)pyrido[2,3-d]pyridazin-5-one], the IC50 in the assay on SMN2 mRNA is below 0.1 µM; in the assay with Target C it was 0.1 to 1 µM; in the assay on HTT (setting [1]), below 0.1 µM.

For the molecule `Cc1cn2nc(-c3ccc4c(=O)n([C@@H]5CCNC6(CCC6)C5)ncc4n3)cc(C)c2n1` [Compound 1545, 6-[(8R)-5-azaspiro[3.5]nonan-8-yl]-2-(2,8-dimethylimidazo[1,2-b]pyridazin-6-yl)pyrido[2,3-d]pyridazin-5-one], the IC50 in the assay with SMN2 mRNA is below 0.1 µM; in the assay with Target C, 0.1 to 1 µM; with HTT (setting [1]), below 0.1 µM.

Take `Cc1cn2nc(-c3ccc4c(=O)n(C5CCNC6(CCC6)C5)ncc4n3)cc(C)c2n1` (stereo not drawn) [Compound 1553]: the IC50 with SMN2 mRNA is 0.1 to 1 µM; in the assay on Target C it was 1 to 10 µM; in the assay with HTT (setting [1]), 0.1 to 1 µM.

On to `Cn1cc2ccc(-n3cnc4ccc(NC5CCNCC5)cc4c3=O)cc2n1` [Compound 2164], for which the IC50 was above 10 µM in the assay with SMN2 mRNA, 1 to 10 µM in the assay on Target C and above 10 µM with HTT (setting [1]).

Consider `Cc1cc(-c2ccc3ncn(C4CCNCC4)c(=O)c3c2)cc2cn(C)nc12` [Compound 2169], for which the IC50 with SMN2 mRNA, in the assay with Target C and with HTT (setting [1]) was above 10 µM throughout.

Take `Cc1cc(-c2ccc3ncn(C4CCN(C)CC4)c(=O)c3c2)cc2cn(C)nc12` [Compound 2170]: the IC50 with SMN2 mRNA, in the assay with Target C and in the assay with HTT (setting [1]) was above 10 µM throughout.

As for `CN1CCC(Nc2ccc3ncn(-c4ccc5nn(C)cc5c4)c(=O)c3c2)CC1` [Compound 2171], the IC50 with SMN2 mRNA, with Target C and with HTT (setting [1]) was above 10 µM each time.

Take `Cc1cn2cc(-n3cnc4ccc(N5CCNCC5)cc4c3=O)cc(F)c2n1` [Compound 2195]: the IC50 in the assay with SMN2 mRNA, with Target C and in the assay on HTT (setting [1]) was above 10 µM in each case.

Turning to `Cn1cc2cc(-n3cnc4ccc(N5CCNCC5)cc4c3=O)cc(F)c2n1` [Compound 2196], the IC50 with SMN2 mRNA, in the assay with Target C and in the assay with HTT (setting [1]) was above 10 µM throughout.

Consider `Cc1cn2cc(-n3cnc4ccc(N5CCN(C)CC5)cc4c3=O)cc(F)c2n1` [Compound 2197], for which the IC50 in the assay with SMN2 mRNA, in the assay with Target C and in the assay on HTT (setting [1]) was 1 to 10 µM each time.
